The source of these data is US10654884B2 (Vitae Pharmaceuticals, Inc., priority 2014, dated 2020).

The pIC50 is the negative decadic logarithm of the IC50, by convention in mol/L.

pIC50: −log10 of the molar value.

The target of assay [1] is T1, CD73 on U138 neuroglioma cells (Homo sapiens, UniProt P21589).
T1 construct: U138 neuroglioma cells, which express CD73 on their surface; endogenous in cells; host or cells: U138 neuroglioma cells (ATCC)
T1 sequence (P21589 27-549): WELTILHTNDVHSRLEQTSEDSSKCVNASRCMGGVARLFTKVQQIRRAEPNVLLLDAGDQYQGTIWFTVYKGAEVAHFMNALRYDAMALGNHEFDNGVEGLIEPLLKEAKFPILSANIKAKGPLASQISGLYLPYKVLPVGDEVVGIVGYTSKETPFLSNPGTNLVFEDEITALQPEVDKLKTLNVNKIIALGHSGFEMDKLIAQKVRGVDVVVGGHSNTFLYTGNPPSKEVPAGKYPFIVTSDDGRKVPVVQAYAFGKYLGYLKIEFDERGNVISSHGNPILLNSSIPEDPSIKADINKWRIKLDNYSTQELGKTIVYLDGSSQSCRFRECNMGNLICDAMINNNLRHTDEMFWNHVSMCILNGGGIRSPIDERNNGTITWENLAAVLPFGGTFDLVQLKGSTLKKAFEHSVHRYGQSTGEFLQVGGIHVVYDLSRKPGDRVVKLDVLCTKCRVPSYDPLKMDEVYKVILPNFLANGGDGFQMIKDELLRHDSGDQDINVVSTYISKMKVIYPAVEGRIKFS
Description: Inhibition of Ecto-5′-Nucleotidase Activity in U138 Neuroglioma Cells (Assay 2). In kind it is cell-based. The following applies: 50 μM CMP, 2 hr at 37° C., malachite green readout, read-out: Assay 2: IC50, inhibition of ecto-5′-nucleotidase activity in U138 neuroglioma cells. In a few lines:
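Whole-cell CD73 activity in U138 human neuroglioma cells seeded the day before, washed free of phosphate, then given test compound dilutions with 50 μM CMP in HEPES-buffered saline, pH 7.4, DMSO ≤0.1%. Incubated 2 hr at 37° C; released inorganic phosphate in supernatant measured by malachite green; IC50 by nonlinear regression.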

Another assay deals with T2, human CD73 (Homo sapiens, UniProt P21589).
T2 construct: purchased R&D Systems 5795-EN-010
T2 sequence (P21589 27-549): T1 sequence (P21589 27-549)
As to the kind of experiment: Inhibition of 5′-Nucleotidase Activity of CD73 (Assay 1). Format: biochemical. As to conditions: human CD73 4 ng/ml, 50 μM CMP, 20 min at RT, malachite green readout; read-out: Assay 1: IC50, inhibition of 5′-nucleotidase activity of CD73. In a few lines: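 Human CD73 (4 ng/ml final) was incubated with 50 μM CMP in 25 mM Tris-HCl pH 7.4, 0.005% Brij-35 for 20 min at RT. Reactions were stopped with malachite green reagent and absorbance was read at 620 nm. IC50 came from a 4-parameter logistic fit.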

Turning to `Nc1nc(Cl)nc2c1ncn2[C@@H]1O[C@H](COC(COCc2ccccc2)(C(=O)O)C(=O)O)[C@@H](O)[C@H]1O` [Example 6, 2-(((2R,3S,4R,5R)-5-(6-amino-2-chloro-9H-purin-9-yl)-3,4-dihydroxytetrahydrofuran-2-yl)methoxy)-2-((benzyloxy)methyl)malonic acid], the pIC50 (in assay [1]; at human CD73) was greater than 7.00 in each case.

As to `Nc1nc(Cl)nc2c1ncn2[C@@H]1O[C@H](COC(Cc2ccccc2)(C(=O)O)C(=O)O)[C@@H](O)[C@H]1O` [Example 7, 2-(((2R,3S,4R,5R)-5-(6-amino-2-chloro-9H-purin-9-yl)-3,4-dihydroxytetrahydrofuran-2-yl)methoxy)-2-benzylmalonic acid], the negative logarithm of the IC50 (pIC50) (in assay [1]; at human CD73) was greater than 7.00 throughout.

For the compound `Nc1nc(Cl)nc2c1ncn2[C@@H]1O[C@H](CO[C@H](C(=O)OCc2ccccc2)P(=O)(O)O)[C@@H](O)[C@H]1O` [Example 16a, ((S)-1-(((2R,3S,4R,5R)-5-(6-amino-2-chloro-9H-purin-9-yl)-3,4-dihydroxytetrahydrofuran-2-yl)methoxy)-2-(benzyloxy)-2-oxoethyl)phosphonic Acid], the results for the negative-log IC50 (pIC50) (in assay [1]; at human CD73) were less than 6.00 and 6.00 to 7.00, respectively.

Turning to `CC(=O)NNC(=O)C(OC[C@H]1O[C@@H](n2cnc3c(N)nc(Cl)nc32)[C@H](O)[C@@H]1O)P(=O)(O)O` (stereo partly drawn) [Example 20, (2-(2-acetylhydrazinyl)-1-(((2R,3S,4R,5R)-5-(6-amino-2-chloro-9H-purin-9-yl)-3,4-dihydroxytetrahydrofuran-2-yl)methoxy)-2-oxoethyl)phosphonic Acid], the pIC50 in assay [1] was 6.00 to 7.00; at human CD73, greater than 7.00.

On to `CCNc1nc(Cl)nc2c1ncn2[C@@H]1O[C@H](CO[C@@](C)(C(=O)OCC)P(=O)(O)O)[C@@H](O)[C@H]1O` [Example 29, ((R)-2-(((2R,3S,4R,5R)-5-(2-chloro-6-(ethylamino)-9H-purin-9-yl)-3,4-dihydroxytetrahydrofuran-2-yl)methoxy)-1-ethoxy-1-oxopropan-2-yl)phosphonic Acid], for which the negative logarithm of the IC50 (pIC50) (in assay [1]; on human CD73) was greater than 7.00 throughout.

Turning to `CCNc1nc(Cl)nc2c1ncn2[C@@H]1O[C@H](CO[C@](C)(C(=O)OCC)P(=O)(O)O)[C@@H](O)[C@H]1O` [Example 29a, ((S)-2-(((2R,3S,4R,5R)-5-(2-chloro-6-(ethylamino)-9H-purin-9-yl)-3,4-dihydroxytetrahydrofuran-2-yl)methoxy)-1-ethoxy-1-oxopropan-2-yl)phosphonic Acid], the negative logarithm of the IC50 (pIC50) (in assay [1]; on human CD73) was 6.00 to 7.00 each time.

`COc1nc(OC)c2ncn([C@@H]3O[C@H](COC(C(=O)OC(C)(C)C)P(=O)(O)O)[C@@H](O)[C@H]3O)c2n1` (stereo partly drawn) [Example 33, (2-(tert-butoxy)-1-(((2R,3S,4R,5R)-5-(2,6-dimethoxy-9H-purin-9-yl)-3,4-dihydroxytetrahydrofuran-2-yl)methoxy)-2-oxoethyl)phosphonic Acid]: the pIC50 (in assay [1]; at human CD73) was 6.00 to 7.00 each time.

Consider `COc1nc(OC)c2ncn([C@@H]3O[C@H](COC(C(=O)O)P(=O)(O)O)[C@@H](O)[C@H]3O)c2n1` (stereo partly drawn) [Example 33a, 2-(((2R,3S,4R,5R)-5-(2,6-dimethoxy-9H-purin-9-yl)-3,4-dihydroxytetrahydrofuran-2-yl)methoxy)-2-phosphonoacetic acid], for which the negative-log IC50 (pIC50) in assay [1] was less than 6.00; on human CD73, 6.00 to 7.00.

Consider `Cc1nc(C)c2ncn([C@@H]3O[C@H](COC(C(=O)O)P(=O)(O)O)[C@@H](O)[C@H]3O)c2n1` (stereo partly drawn) [Example 38, 2-(((2R,3S,4R,5R)-5-(2,6-dimethyl-9H-purin-9-yl)-3,4-dihydroxytetrahydrofuran-2-yl)methoxy)-2-phosphonoacetic acid], for which the negative logarithm of the IC50 (pIC50) in assay [1] is less than 6.00; at human CD73, 6.00 to 7.00.
